Values joined by “and” are separate entries in the source; they are usually repeats but may differ in a detail not shown here. Equal values may be shown once.
Tests used:
HeLa [1] = assay: In vitro inhibitory concentration against cell proliferation in human HeLa (cervical adenocarcinoma) tumor cells; assay type: functional, cell-based
SK-OV-3 = assay: In vitro inhibitory concentration against cell proliferation in human SK-OV-3 (ovarian adenocarcinoma) tumor cells; assay type: functional, cell-based
[2] = target: Cyclin-dependent kinase 1/cyclin B (Homo sapiens, UniProt P06493); assay: Inhibition of Cyclin B-cyclin-dependent kinase 1; assay type: protein-complex assay
A-375 [3] = assay: In vitro inhibitory concentration against cell proliferation in human A375 (malignant melanoma),tumor cells; assay type: functional, cell-based
HCT-116 = assay: In vitro inhibitory concentration against cell proliferation in human HCT116 (colon carcinoma) tumor cells; assay type: functional, cell-based
PC-3 = assay: In vitro inhibitory concentration against cell proliferation in human PC-3 (prostate adenocarcinoma) tumor cells; assay type: functional, cell-based
MDA-MB-231 [4] = assay: In vitro inhibitory concentration against cell proliferation in various human MDA-MB-231 (breast carcinoma) tumor cells; assay type: functional, cell-based
Casein kinase II = Casein kinase II (Homo sapiens, UniProt P19784+P67870+P68400); assay: Inhibition of Casein kinase-2; assay type: protein-complex assay
[5] = Inhibition of Platelet-derived growth factor receptor beta
HeLa [6] = assay: In vitro inhibitory concentration against cell proliferation in s human HeLa (cervical adenocarcinoma),tumor cells; assay type: functional, cell-based
[7] = Half life after intravenous administration of 3 mg/kg; assay type: ADME, organism-based; parameters: dose 3 mg/kg, route intravenous; conditions: rat, in vivo
[8] = Bioavailability in mouse (nude) (dose 30 mg/kg p.o.); assay type: ADME, organism-based; conditions: in vivo, po
[9] = target: Mitogen-activated protein kinase; ERK1/ERK2 (Homo sapiens, UniProt P27361+P28482); assay: Inhibition of Mitogen-activated protein kinase 1; assay type: protein assay
[10] = Area under concentration time curve after 3 mg/kg […] in nude mice; assay type: ADME, organism-based; parameters: dose 3 mg/kg; conditions: mouse, in vivo
[11] = Half life after oral administration of 30 mg/kg; assay type: ADME, organism-based; parameters: dose 30 mg/kg, route oral; conditions: rat, in vivo
[12] = target: Glycogen synthase kinase-3 (Homo sapiens, UniProt P49840+P49841); assay: Inhibition of Glycogen synthase kinase-3; assay type: protein assay
[13] = Maximum plasma concentration after intravenous administration of 3 mg/kg in nude mice; assay type: ADME, organism-based; parameters: dose 3 mg/kg, route intravenous; conditions: mouse
Casein kinase I = assay: Inhibition of human casein kinase-1; assay type: protein assay
[14] = Inhibition of Protein kinase A
CaM kinase II = CaM kinase II (Homo sapiens, UniProt Q13557+Q13555+Q13554+Q9UQM7); assay: Inhibition of [Ca(2+)]/calmodulin dependent kinase; assay type: protein assay
[15] = target: Vascular endothelial growth factor receptor 2 (Homo sapiens, UniProt P35968); assay: Inhibition of Vascular endothelial growth factor receptor 2
[16] = target: Cyclin-dependent kinase 4/cyclin D1 (Homo sapiens, UniProt P11802); assay: Inhibition of Cyclin-dependent kinase 4-cyclin D1; assay type: protein-complex assay
[17] = target: Protein kinase C beta type (Homo sapiens, UniProt P05771); assay: Inhibition of Protein kinase C- beta 2
[18] = Maximum plasma concentration after oral administration of 30 mg/kg in nude mice; assay type: ADME, organism-based; parameters: dose 30 mg/kg, route oral; conditions: mouse
[19] = target: Fibroblast growth factor receptor 2 (Homo sapiens, UniProt P21802); assay: Inhibition of Fibroblast growth factor receptor 2
[20] = Inhibition of Protein kinase-C alpha/gamma
[21] = Area under concentration time curve after 30 mg/kg of oral dose in nude mice; assay type: ADME, organism-based; parameters: dose 30 mg/kg, route oral; conditions: mouse, in vivo
[22] = target: Cyclin-dependent kinase 2/cyclin A (Homo sapiens, UniProt P24941); assay: Inhibition of Cyclin-dependent kinase 2-cyclin A; assay type: protein-complex assay
MDA-MB-231 [23] = assay: In vitro inhibitory concentration against cell proliferation in human MDA-MB-231 (breast carcinoma) tumor cells; assay type: functional, cell-based
A-375 [24] = assay: In vitro inhibitory concentration against cell proliferation in human A375 (malignant melanoma) tumor cells; assay type: functional, cell-based
Mus musculus [25] = assay: Mean day of survival after intraperitoneal administration of 75 mg/kg in mice; assay type: functional
Mus musculus [26] = assay: Mean day of survival after intraperitoneal administration of 100 mg/kg in mice; assay type: functional
[27] = Half life after oral administration of 10 mg/kg; assay type: ADME, organism-based, Canis lupus familiaris; parameters: dose 10 mg/kg, route oral; conditions: dog, in vivo
[28] = Area under concentration time curve after 30 mg/kg of oral dose in rat; assay type: ADME, organism-based; parameters: dose 30 mg/kg, route oral; conditions: in vivo
[29] = Bioavailability in dog after 10 mg/kg oral dose; assay type: ADME, organism-based, Canis lupus familiaris; conditions: in vivo, read-out: Bioavailabiility
[30] = Maximum plasma concentration after intravenous administration of 1 mg/kg in dog; assay type: ADME, organism-based, Canis lupus familiaris; parameters: dose 1 mg/kg, route intravenous
[31] = Maximum plasma concentration after oral administration of 30 mg/kg in rat; assay type: ADME, organism-based; parameters: dose 30 mg/kg, route oral
[32] = Maximum plasma concentration after intravenous administration of 3 mg/kg in rat; assay type: ADME, organism-based; parameters: dose 3 mg/kg, route intravenous
[33] = Area under concentration time curve after 10 mg/kg of oral dose in dog; assay type: ADME, organism-based, Canis lupus familiaris; parameters: dose 10 mg/kg, route oral; conditions: in vivo
[34] = Bioavailability in rat after 30 mg/kg oral dose; assay type: ADME, organism-based; conditions: in vivo, read-out: Bioavailabiility
[35] = Maximum plasma concentration after oral administration of 10 mg/kg in dog; assay type: ADME, organism-based, Canis lupus familiaris; parameters: dose 10 mg/kg, route oral
[36] = Area under concentration time curve after 3 mg/kg […] in rat; assay type: ADME, organism-based; parameters: dose 3 mg/kg; conditions: in vivo
[37] = Area under concentration time curve after 1 mg/kg of intravenous dose in dog; assay type: ADME, organism-based, Canis lupus familiaris; parameters: dose 1 mg/kg, route intravenous; conditions: in vivo
[38] = Half life after intravenous administration of 1 mg/kg; assay type: ADME, organism-based, Canis lupus familiaris; parameters: dose 1 mg/kg, route intravenous; conditions: dog, in vivo

Fibroblast growth factor receptor 2, sequence (P21802 whole entry): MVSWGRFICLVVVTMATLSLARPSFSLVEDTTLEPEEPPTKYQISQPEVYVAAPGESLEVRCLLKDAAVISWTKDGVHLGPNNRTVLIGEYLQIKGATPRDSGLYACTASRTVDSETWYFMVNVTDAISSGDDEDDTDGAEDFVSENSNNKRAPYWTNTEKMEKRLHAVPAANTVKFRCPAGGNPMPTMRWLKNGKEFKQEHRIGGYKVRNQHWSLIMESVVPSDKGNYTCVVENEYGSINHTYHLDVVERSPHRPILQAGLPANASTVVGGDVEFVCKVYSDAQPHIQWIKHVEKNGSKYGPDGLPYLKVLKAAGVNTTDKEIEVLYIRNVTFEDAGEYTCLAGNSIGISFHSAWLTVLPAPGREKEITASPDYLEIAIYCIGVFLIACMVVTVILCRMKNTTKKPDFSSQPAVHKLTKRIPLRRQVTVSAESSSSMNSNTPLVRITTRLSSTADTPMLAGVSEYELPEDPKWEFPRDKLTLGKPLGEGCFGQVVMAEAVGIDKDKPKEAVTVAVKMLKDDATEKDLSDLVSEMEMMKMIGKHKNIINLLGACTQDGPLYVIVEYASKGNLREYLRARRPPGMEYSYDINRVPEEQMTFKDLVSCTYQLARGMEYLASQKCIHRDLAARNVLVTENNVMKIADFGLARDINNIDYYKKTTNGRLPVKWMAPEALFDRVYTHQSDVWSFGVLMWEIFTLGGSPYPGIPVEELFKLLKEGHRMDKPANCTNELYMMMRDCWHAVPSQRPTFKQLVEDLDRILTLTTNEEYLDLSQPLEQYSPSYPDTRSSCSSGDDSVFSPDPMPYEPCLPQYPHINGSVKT
Casein kinase II, sequence (P67870 whole entry): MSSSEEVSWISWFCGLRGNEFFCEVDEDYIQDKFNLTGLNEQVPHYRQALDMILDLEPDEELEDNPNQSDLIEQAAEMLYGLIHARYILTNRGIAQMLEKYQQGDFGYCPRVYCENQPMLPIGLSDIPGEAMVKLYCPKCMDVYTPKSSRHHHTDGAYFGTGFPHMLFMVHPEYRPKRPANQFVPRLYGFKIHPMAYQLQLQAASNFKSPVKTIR
Casein kinase II, sequence (P68400 whole entry): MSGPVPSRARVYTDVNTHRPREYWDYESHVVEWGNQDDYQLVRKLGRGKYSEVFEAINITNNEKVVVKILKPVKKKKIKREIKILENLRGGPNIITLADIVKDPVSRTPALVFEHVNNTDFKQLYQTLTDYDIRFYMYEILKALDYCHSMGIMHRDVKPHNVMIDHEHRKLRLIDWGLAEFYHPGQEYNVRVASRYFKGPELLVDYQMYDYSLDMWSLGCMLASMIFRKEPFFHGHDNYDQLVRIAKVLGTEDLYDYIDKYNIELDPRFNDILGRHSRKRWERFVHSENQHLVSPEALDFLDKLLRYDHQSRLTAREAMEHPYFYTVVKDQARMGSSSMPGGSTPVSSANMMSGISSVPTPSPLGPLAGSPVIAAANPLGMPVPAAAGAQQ
Casein kinase II, sequence (P19784 whole entry): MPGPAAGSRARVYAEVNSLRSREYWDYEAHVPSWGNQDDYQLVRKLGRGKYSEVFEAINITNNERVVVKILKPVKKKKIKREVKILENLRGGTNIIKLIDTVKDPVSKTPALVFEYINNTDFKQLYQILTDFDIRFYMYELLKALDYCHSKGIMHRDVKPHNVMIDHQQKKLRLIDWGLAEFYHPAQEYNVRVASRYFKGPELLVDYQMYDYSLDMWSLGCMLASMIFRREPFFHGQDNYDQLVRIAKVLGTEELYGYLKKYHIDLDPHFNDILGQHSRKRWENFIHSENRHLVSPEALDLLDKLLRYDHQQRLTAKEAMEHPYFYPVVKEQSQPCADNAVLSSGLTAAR
Protein kinase C beta type, sequence (P05771 whole entry): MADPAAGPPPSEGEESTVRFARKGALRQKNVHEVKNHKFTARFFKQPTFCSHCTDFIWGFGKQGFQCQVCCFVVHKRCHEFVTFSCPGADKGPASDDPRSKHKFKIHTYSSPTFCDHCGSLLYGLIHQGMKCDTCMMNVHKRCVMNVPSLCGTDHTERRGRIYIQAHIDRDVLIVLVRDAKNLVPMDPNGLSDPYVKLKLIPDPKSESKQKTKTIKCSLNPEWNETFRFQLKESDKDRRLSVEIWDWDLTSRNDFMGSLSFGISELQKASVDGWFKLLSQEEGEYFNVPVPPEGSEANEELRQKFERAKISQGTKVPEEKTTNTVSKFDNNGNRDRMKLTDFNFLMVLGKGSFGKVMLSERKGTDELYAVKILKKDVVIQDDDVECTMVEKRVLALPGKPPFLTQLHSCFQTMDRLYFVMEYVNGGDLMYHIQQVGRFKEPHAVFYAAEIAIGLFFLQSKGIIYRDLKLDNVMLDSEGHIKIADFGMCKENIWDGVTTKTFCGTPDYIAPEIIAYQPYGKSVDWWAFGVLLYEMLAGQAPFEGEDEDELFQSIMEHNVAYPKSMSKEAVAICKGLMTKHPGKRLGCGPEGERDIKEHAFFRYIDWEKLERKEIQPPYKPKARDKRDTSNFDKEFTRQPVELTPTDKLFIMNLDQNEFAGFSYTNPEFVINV
Cyclin-dependent kinase 4/cyclin D1, sequence (P11802 whole entry): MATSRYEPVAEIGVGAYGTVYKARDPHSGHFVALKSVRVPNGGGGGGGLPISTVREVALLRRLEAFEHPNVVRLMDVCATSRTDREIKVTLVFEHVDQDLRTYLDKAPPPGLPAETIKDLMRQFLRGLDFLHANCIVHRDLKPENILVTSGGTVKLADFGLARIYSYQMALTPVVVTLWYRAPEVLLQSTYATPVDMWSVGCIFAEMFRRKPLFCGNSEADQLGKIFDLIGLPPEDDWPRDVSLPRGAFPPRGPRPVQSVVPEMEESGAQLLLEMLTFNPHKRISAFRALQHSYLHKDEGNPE
Cyclin-dependent kinase 4/cyclin D1, sequence (P24385 whole entry, further chain): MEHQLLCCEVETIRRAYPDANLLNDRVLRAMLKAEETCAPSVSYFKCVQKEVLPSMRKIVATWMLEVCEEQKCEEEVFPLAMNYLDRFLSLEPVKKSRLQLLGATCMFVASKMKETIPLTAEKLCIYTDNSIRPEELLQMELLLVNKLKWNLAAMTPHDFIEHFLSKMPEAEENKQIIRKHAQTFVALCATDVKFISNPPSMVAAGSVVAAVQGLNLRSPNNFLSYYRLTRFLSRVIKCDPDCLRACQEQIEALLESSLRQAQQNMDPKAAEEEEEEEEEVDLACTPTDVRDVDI
Vascular endothelial growth factor receptor 2, sequence (P35968 whole entry): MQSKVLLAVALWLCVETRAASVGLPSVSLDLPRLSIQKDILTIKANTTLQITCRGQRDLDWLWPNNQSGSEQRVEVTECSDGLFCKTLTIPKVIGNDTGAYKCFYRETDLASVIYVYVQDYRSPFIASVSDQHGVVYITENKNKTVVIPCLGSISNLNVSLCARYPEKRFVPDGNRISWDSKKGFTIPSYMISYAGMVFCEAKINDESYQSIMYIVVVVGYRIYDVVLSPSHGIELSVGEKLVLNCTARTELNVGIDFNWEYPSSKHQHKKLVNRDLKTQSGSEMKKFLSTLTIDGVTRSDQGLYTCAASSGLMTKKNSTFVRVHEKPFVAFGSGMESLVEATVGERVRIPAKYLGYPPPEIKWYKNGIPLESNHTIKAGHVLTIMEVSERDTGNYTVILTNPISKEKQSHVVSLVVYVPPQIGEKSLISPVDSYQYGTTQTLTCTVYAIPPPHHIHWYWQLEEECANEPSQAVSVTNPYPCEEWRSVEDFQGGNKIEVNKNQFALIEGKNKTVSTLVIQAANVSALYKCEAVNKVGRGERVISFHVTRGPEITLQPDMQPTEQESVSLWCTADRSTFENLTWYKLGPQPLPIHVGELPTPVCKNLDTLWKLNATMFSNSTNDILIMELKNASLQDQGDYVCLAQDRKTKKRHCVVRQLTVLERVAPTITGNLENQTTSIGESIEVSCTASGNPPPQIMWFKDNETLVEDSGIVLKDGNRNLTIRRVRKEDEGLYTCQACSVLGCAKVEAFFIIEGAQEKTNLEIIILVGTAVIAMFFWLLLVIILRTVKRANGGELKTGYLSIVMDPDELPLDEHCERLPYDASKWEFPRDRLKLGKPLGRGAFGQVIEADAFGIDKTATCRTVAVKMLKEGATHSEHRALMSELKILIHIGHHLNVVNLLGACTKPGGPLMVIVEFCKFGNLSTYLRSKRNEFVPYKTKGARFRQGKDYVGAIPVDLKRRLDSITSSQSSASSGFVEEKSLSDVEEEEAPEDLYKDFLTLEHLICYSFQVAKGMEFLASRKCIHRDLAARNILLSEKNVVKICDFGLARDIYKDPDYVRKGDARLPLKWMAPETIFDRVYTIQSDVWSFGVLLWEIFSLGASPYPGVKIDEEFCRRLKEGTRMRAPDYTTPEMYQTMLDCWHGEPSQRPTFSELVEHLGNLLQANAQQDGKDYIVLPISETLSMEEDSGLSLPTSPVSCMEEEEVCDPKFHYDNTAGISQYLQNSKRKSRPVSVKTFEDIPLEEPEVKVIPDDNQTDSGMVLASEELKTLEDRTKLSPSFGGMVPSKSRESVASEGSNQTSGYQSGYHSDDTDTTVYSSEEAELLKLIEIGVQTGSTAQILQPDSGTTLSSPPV

Compound: Cc1nc(Nc2ccc(S(N)(=O)=O)cc2)nn1C(=O)c1c(F)ccc(F)c1F
- IC50 (HeLa [1]): 220 nM
- IC50 (SK-OV-3): 1600 nM
- IC50 [2]: 3.2 nM

Compound: Cc1ccc(F)c(C(=O)n2nc(N)nc2Nc2ccc(S(N)(=O)=O)cc2)c1F
- IC50 (HeLa [1]): 28500 nM
- IC50 (A-375 [3]): > 10000 nM
- IC50 (HCT-116): 4100 nM
- IC50 [2]: 2100 nM

Compound: CN(C)CCNS(=O)(=O)c1ccc(Nc2nc(N)n(C(=O)c3c(F)cccc3F)n2)cc1
- IC50 (HeLa [1]): 140 nM
- IC50 [2]: 130 nM

Compound: Nc1nc(Nc2ccc(S(N)(=O)=O)cc2)nn1C(=O)c1cccs1
- IC50 (HeLa [1]): 550 nM
- IC50 (A-375 [3]): 2600 nM
- IC50 (PC-3): 160 nM
- IC50 (MDA-MB-231 [4]): 760 nM
- IC50 (SK-OV-3): 730 nM
- IC50 (HCT-116): 1900 nM

Compound: Nc1nc(Nc2ccc(S(N)(=O)=O)cc2)nn1C(=S)Nc1c(F)cccc1F
- IC50 (HeLa [1]): 35 nM
- IC50 (A-375 [3]): 92 nM
- IC50 (Casein kinase II): > 100000 nM
- IC50 [5]: 1600 nM
- IC50 (HCT-116): 20 nM

Compound: Nc1nc(Nc2ccc(S(N)(=O)=O)cc2)nn1C(=O)Nc1c(F)cccc1F
- IC50 (HeLa [6]): 3730 nM
- IC50 (A-375 [3]): 48300 nM
- IC50 (HCT-116): 4700 nM

Compound: Nc1nc(Nc2ccc(S(N)(=O)=O)cc2)nn1Cc1c(F)cccc1F
- IC50 [2]: > 100000 nM

Compound: N[n+]1nc(Nc2ccc(S(N)(=O)=O)cc2)nn1S(=O)(=O)c1c(F)cccc1F
- IC50 [2]: 660 nM

Compound: Cc1ccc(F)c(C(=O)n2nc(Nc3ccc(S(N)(=O)=O)cc3)nc2C)c1F
- half-life [7]: 1.94 h
- bioavailability [8]: 20.6%
- IC50 (HeLa [1]): 370 nM
- IC50 [9]: 9500 nM
- AUC [10]: 0.27 µM·h
- half-life [11]: 2.29 h
- IC50 [12]: 31 nM
- Cmax [13]: 330 nM
- IC50 (Casein kinase I): > 100000 nM
- IC50 (PC-3): 160 nM
- IC50 [14]: > 100000 nM
- IC50 (Casein kinase II): > 100000 nM
- IC50 (CaM kinase II): > 100000 nM
- IC50 [15]: 510 nM
- IC50 [16]: 190 nM
- IC50 [17]: > 100000 nM
- Cmax [18]: 430 nM
- IC50 [5]: 10700 nM
- IC50 (SK-OV-3): 220 nM
- IC50 [19]: 270 nM
- IC50 (HCT-116): 880 nM
- IC50 [2]: 8 nM and 3 nM
- IC50 [20]: > 100000 nM
- AUC [21]: 0.55 µM·h
- IC50 [22]: 0.3 nM

Compound: Cc1ccsc1C(=O)n1nc(Nc2ccc(S(N)(=O)=O)cc2)nc1N
- IC50 (HeLa [1]): 91 nM
- IC50 [12]: 26 nM
- IC50 (A-375 [3]): 250 nM
- IC50 (PC-3): 110 nM
- IC50 (Casein kinase II): > 100000 nM
- IC50 [16]: 120 nM
- IC50 [17]: > 100000 nM
- IC50 [5]: 310 nM
- IC50 [19]: 180 nM
- IC50 (HCT-116): 130 nM
- IC50 [20]: > 100000 nM
- IC50 [22]: 0.4 nM

Compound: Cc1cc(C)c(C(=O)n2nc(Nc3ccc(S(N)(=O)=O)cc3)nc2N)s1
- IC50 (HeLa [1]): 72 nM
- IC50 (PC-3): 37 nM
- IC50 (MDA-MB-231 [23]): 170 nM
- IC50 (HCT-116): 270 nM

Compound: Nc1nc(Nc2ccc(S(N)(=O)=O)cc2)nn1C(=O)c1sccc1F
- IC50 (HeLa [1]): 260 nM
- IC50 (PC-3): 370 nM
- IC50 (A-375 [24]): 940 nM
- IC50 (SK-OV-3): 2100 nM
- IC50 (HCT-116): 210 nM

Compound: Nc1nc(Nc2ccc(S(N)(=O)=O)cc2)n(C(=S)c2c(F)cccc2F)n1
- IC50 (HeLa [1]): 130 nM
- IC50 (A-375 [3]): 970 nM
- IC50 (HCT-116): 910 nM

Compound: Nc1nc(Nc2ccc(S(N)(=O)=O)cc2)nn1C(=O)c1c(F)cccc1F [JNJ-7706621]
- T1/2 [7]: 0.64 h
- half-life [7]: 0.51 h
- bioavailability [8]: 2%
- Mean day survival (Mus musculus [25]): 48.5 days
- AUC [10]: 3.2 µM·h
- T1/2 [11]: 2.2 h and 1.7 h
- Mean day survival (Mus musculus [26]): 50.1 days
- Cmax [13]: 6400 nM
- half-life [27]: 2.36 h
- IC50 (PC-3): 120 nM
- IC50 [14]: > 100000 nM
- AUC [28]: 9.5 µM·h
- IC50 [17]: > 100000 nM
- bioavailability [29]: 63.3%
- Cmax [30]: 2190 nM
- Cmax [31]: 2500 nM
- Cmax [18]: 210 nM
- Cmax [32]: 23200 nM
- IC50 (MDA-MB-231 [4]): 590 nM
- IC50 (SK-OV-3): 750 nM
- AUC [33]: 15.5 µM·h
- bioavailability [34]: 8%
- IC50 [19]: 220 nM
- Cmax [35]: 4580 nM
- IC50 [20]: 30100 nM
- AUC [36]: 11.4 µM·h
- AUC [37]: 2.45 µM·h
- AUC [21]: 0.74 µM·h
- half-life [38]: 3.89 h

— ChEMBL document CHEMBL1139550, “1-Acyl-1H-[1,2,4]triazole-3,5-diamine analogues as novel and potent anticancer cyclin-dependent kinase inhibitors: synthesis and evaluation of biological activities” (J Med Chem, 2005)
